Results: US9801901B2, “Alginate oligomers for use in overcoming multidrug resistance in bacteria” (priority 2009, dated 2017)
Converted amounts (≈) assume the structure as drawn. Where two headings read alike, the source gives them in different places. Marks after values point to notes of the source that are not given here.

Experiments:
[1] = test system: Acinetobacter lwoffii (Egypt, V10); test: MIC-assay, Mueller-Hinton broth with G-block alginate, 384-well, OD600
[2] = test system: Acinetobacter lwoffii (6056, V22); test: as above
[3] = test system: Pseudomonas aeruginosa ATCC 39324, mucoid type strain (R79); test: MIC assay, CAMHB with alginate oligomer, no visible growth; type: cell-based; conditions: R79
[4] = test system: Pseudomonas aeruginosa (R22, PSA, V1); test: MIC-assay, Mueller-Hinton broth with G-block alginate, 384-well, OD600
[5] = test system: V12 5725 (Wales) Klebsiella pneumoniae; test: MIC assay, CAMHB with alginate oligomer, no visible growth; type: cell-based; conditions: Table 5, V12 MDR Kleb pneu
[6] = test system: Burkholderia cepacia (1322, V23); test: MIC-assay, Mueller-Hinton broth with G-block alginate, 384-well, OD600
[7] = test system: Acinetobacter baumannii (MDR ACB, Libya, V4); test: as above
[8] = test system: Acinetobacter baumannii (Egypt, V9); test: as above
[9] = test system: Staphylococcus aureus (MRSA) U50; test: MIC-assay, Mueller-Hinton broth with G-block alginate, 384-well, OD600 (Table 12); type: cell-based; conditions: MRSA 1040s, U50 MDR
Excerpt: Minimum inhibitory concentration (MICs) of different antibiotics for strains of Streptococcus oralis and Staphylococcus aureus (MRSA) displaying MDR phenotypes in the presence of varying concentrations of OligoCF-5/20 (0-10%). (MIC values are expressed in μg ml^−1).

[10] = test system: PA01 Pseudomonas aeruginosa ATCC 15692; test: MIC assay, two-fold antibiotic dilutions in CAMHB with alginate oligomer, no visible growth; type: cell-based; conditions: PA01
[11] = test system: V10 (Egypt) Acinetobacter lwoffii; test: MIC assay, CAMHB with alginate oligomer, no visible growth; type: cell-based; conditions: Table 5, V10 MDR Acin. lwoff
[12] = test system: Pseudomonas aeruginosa (MDR 301, PSA, V2); test: MIC-assay, Mueller-Hinton broth with G-block alginate, 384-well, OD600; conditions: Pseudomonas aeruginosa, Table 8, V2
[13] = test system: strains of Klebsiella pneumoniae displaying MDR phenotypes; test: MIC-assay, Mueller-Hinton broth with G-block alginate, 384-well, OD600 (Table 10); type: cell-based
Excerpt: Minimum inhibitory concentration (MICs) of different antibiotics for strains of Klebsiella pneumoniae displaying MDR phenotypes in the presence of varying concentrations of OligoCF-5/20 (0-10%). (MIC values are expressed in μg ml^−1).

[14] = test system: Pseudomonas aeruginosa MDR R22 from China (V1); test: MIC assay, CAMHB with alginate oligomer, no visible growth; type: cell-based; conditions: V1 MDR R22 PA
Excerpt: The study described in Example 1 was repeated with the following strains of bacteria and antibiotics as detailed in Tables 4, 5 and 6.

[15] = test system: Pseudomonas aeruginosa CFA 24-1, clinical mucoid strain (R80); test: as above; type: cell-based; conditions: R80
[16] = test system: Burkholderia cepacia (LMG18941, ATCC-BAA-246); test: MIC-assay, Mueller-Hinton broth with G-block alginate, 384-well, OD600
[17] = Table 9, G-block (OligoCF-5/20) 0%
[18] = Table 9, G-block (OligoCF-5/20) 2%
[19] = Table 9, G-block (OligoCF-5/20) 6%
[20] = Table 9, G-block (OligoCF-5/20) 10%
[21] = Table 8, G-block (OligoCF-5/20) 2%
[22] = Table 8, G-block (OligoCF-5/20) 6%
[23] = Table 8, G-block (OligoCF-5/20) 10%
[24] = Pseudomonas aeruginosa, Table 1, OligoCF-5/20 0G, read-out: MIC
[25] = Pseudomonas aeruginosa, Table 1, OligoCF-5/20 +2% G, read-out: MIC
[26] = Pseudomonas aeruginosa, Table 1, OligoCF-5/20 +6% G, read-out: MIC
[27] = Pseudomonas aeruginosa, Table 1, OligoCF-5/20 +10% G, read-out: MIC

CC[C@H]1OC(=O)[C@H](C)[C@@H](O[C@H]2C[C@@](C)(OC)[C@@H](O)[C@H](C)O2)[C@H](C)[C@@H](O[C@@H]2O[C@H](C)C[C@H](N(C)C)[C@H]2O)[C@](C)(O)C[C@@H](C)CN(C)[C@H](C)[C@@H](O)[C@]1(C)O [Azithromycin]
MIC [1, 17]: < 1 µg/mL | MIC [1, 18]: < 1 µg/mL | MIC [1, 19]: < 1 µg/mL | MIC [1, 20]: < 1 µg/mL | MIC [2, 17]: < 2 µg/mL | MIC [2, 18]: < 2 µg/mL | MIC [2, 19]: < 2 µg/mL | MIC [2, 20]: < 2 µg/mL | MIC ([3]; Pseudomonas aeruginosa, ATCC39324, Table 1, OligoCF-5/20 0G, read-out: MIC): 128 µg/mL (≈ 171 µM) | MIC ([3]; Pseudomonas aeruginosa, ATCC39324, Table 1, OligoCF-5/20 +2% G, read-out: MIC): 64 µg/mL (≈ 85.4 µM) | MIC ([3]; Pseudomonas aeruginosa, ATCC39324, Table 1, OligoCF-5/20 +6% G, read-out: MIC): 16 µg/mL (≈ 21.4 µM) | MIC ([3]; Pseudomonas aeruginosa, ATCC39324, Table 1, OligoCF-5/20 +10% G, read-out: MIC): 4 µg/mL (≈ 5.34 µM) | MIC ([3]; Table 2, OligoCF-5/20 0G): 128^† | MIC ([3]; Table 2, OligoCF-5/20 +2% G): 64^† | MIC ([3]; Table 2, OligoCF-5/20 +6% G): 16^† | MIC ([3]; Table 2, OligoCF-5/20 +10% G): 4^† | MIC [4, 21]: 32 µg/mL (≈ 42.7 µM) | MIC [4, 22]: 32 µg/mL (≈ 42.7 µM) | MIC [4, 23]: 8 µg/mL (≈ 10.7 µM) | MIC ([5]; Klebsiella pneumoniae, OligoCF-5/20 0G, read-out: MIC): 32 µg/mL (≈ 42.7 µM) | MIC ([5]; OligoCF-5/20 +2% G): 8 µg/mL (≈ 10.7 µM) | MIC ([5]; OligoCF-5/20 +6% G): 32 µg/mL (≈ 42.7 µM) | MIC ([5]; OligoCF-5/20 +10% G): 32 µg/mL (≈ 42.7 µM) | MIC ([6]; Table 8, G-block (OligoCF-5/20) 0%): 64 µg/mL (≈ 85.4 µM) | MIC [6, 21]: 32 µg/mL (≈ 42.7 µM) | MIC [6, 22]: 32 µg/mL (≈ 42.7 µM) | MIC [6, 23]: 8 µg/mL (≈ 10.7 µM) | MIC [7, 17]: 16 µg/mL (≈ 21.4 µM) | MIC [7, 18]: 2 µg/mL (≈ 2.67 µM) | MIC [7, 19]: < 1 µg/mL | MIC [7, 20]: < 1 µg/mL | MIC [8, 17]: 4 µg/mL (≈ 5.34 µM) | MIC [8, 18]: < 1 µg/mL | MIC [8, 19]: < 1 µg/mL | MIC [8, 20]: < 1 µg/mL | MIC ([9]; G-block (OligoCF-5/20) 0%): 512 µg/mL (≈ 684 µM) | MIC ([9]; G-block (OligoCF-5/20) 2%): 256 µg/mL (≈ 342 µM) | MIC ([9]; G-block (OligoCF-5/20) 6%): 256 µg/mL (≈ 342 µM) | MIC ([9]; G-block (OligoCF-5/20) 10%): 256 µg/mL (≈ 342 µM) | MIC ([10]; Pseudomonas aeruginosa, ATCC15692, Table 1, OligoCF-5/20 0G, read-out: MIC): 128 µg/mL (≈ 171 µM) | MIC ([10]; Pseudomonas aeruginosa, ATCC15692, Table 1, OligoCF-5/20 +2% G, read-out: MIC): 64 µg/mL (≈ 85.4 µM) | MIC ([10]; Pseudomonas aeruginosa, ATCC15692, Table 1, OligoCF-5/20 +6% G, read-out: MIC): 16 µg/mL (≈ 21.4 µM) | MIC ([10]; Pseudomonas aeruginosa, ATCC15692, Table 1, OligoCF-5/20 +10% G, read-out: MIC): 4 µg/mL (≈ 5.34 µM) | MIC ([10]; Table 2, OligoCF-5/20 0G): 128^† | MIC ([10]; Table 2, OligoCF-5/20 +2% G): 64^† | MIC ([10]; Table 2, OligoCF-5/20 +6% G): 16^† | MIC ([10]; Table 2, OligoCF-5/20 +10% G): 4^† | MIC ([11]; Acinetobacter lwoffii, OligoCF-5/20 0G, read-out: MIC): < 0.25 µg/mL | MIC ([11]; OligoCF-5/20 +2% G): <0.25 µg/mL | MIC ([11]; OligoCF-5/20 +6% G): <0.25 µg/mL | MIC ([11]; OligoCF-5/20 +10% G): <0.25 µg/mL | MIC ([12]; G-block (OligoCF-5/20) 2%): 64 µg/mL (≈ 85.4 µM) | MIC ([12]; G-block (OligoCF-5/20) 6%): 64 µg/mL (≈ 85.4 µM) | MIC ([12]; G-block (OligoCF-5/20) 10%): 32 µg/mL (≈ 42.7 µM) | MIC ([13]; Klebsiella pneumoniae (5712, Wales, V12) MDR, G-block (OligoCF-5/20) 0%, read-out: MIC): 16 µg/mL (≈ 21.4 µM) | MIC ([13]; Klebsiella pneumoniae (5712, Wales, V12) MDR, G-block (OligoCF-5/20) 2%, read-out: MIC): 16 µg/mL (≈ 21.4 µM) | MIC ([13]; Klebsiella pneumoniae (5712, Wales, V12) MDR, G-block (OligoCF-5/20) 6%, read-out: MIC): 16 µg/mL (≈ 21.4 µM) | MIC ([13]; Klebsiella pneumoniae (5712, Wales, V12) MDR, G-block (OligoCF-5/20) 10%, read-out: MIC): 16 µg/mL (≈ 21.4 µM) | MIC ([13]; Klebsiella pneumoniae (IR25, India, V6) MDR, G-block (OligoCF-5/20) 0%): 128 µg/mL (≈ 171 µM) | MIC ([13]; Klebsiella pneumoniae (IR25, India, V6) MDR, G-block (OligoCF-5/20) 2%, read-out: MIC): 64 µg/mL (≈ 85.4 µM) | MIC ([13]; Klebsiella pneumoniae (IR25, India, V6) MDR, G-block (OligoCF-5/20) 6%, read-out: MIC): 32 µg/mL (≈ 42.7 µM) | MIC ([13]; Klebsiella pneumoniae (IR25, India, V6) MDR, G-block (OligoCF-5/20) 10%, read-out: MIC): 16 µg/mL (≈ 21.4 µM) | MIC ([13]; Klebsiella pneumoniae (K3, India, V8) MDR, G-block (OligoCF-5/20) 0%, read-out: MIC): 16 µg/mL (≈ 21.4 µM) | MIC ([13]; Klebsiella pneumoniae (K3, India, V8) MDR, G-block (OligoCF-5/20) 2%, read-out: MIC): 8 µg/mL (≈ 10.7 µM) | MIC ([13]; Klebsiella pneumoniae (K3, India, V8) MDR, G-block (OligoCF-5/20) 6%, read-out: MIC): 16 µg/mL (≈ 21.4 µM) | MIC ([13]; Klebsiella pneumoniae (K3, India, V8) MDR, G-block (OligoCF-5/20) 10%, read-out: MIC): 16 µg/mL (≈ 21.4 µM) | MIC [14, 24]: 64 µg/mL (≈ 85.4 µM) | MIC [14, 25]: 64 µg/mL (≈ 85.4 µM) | MIC [14, 26]: 64 µg/mL (≈ 85.4 µM) | MIC [14, 27]: 32 µg/mL (≈ 42.7 µM) | MIC ([14]; Table 2, OligoCF-5/20 0G): 64^† | MIC ([14]; Table 2, OligoCF-5/20 +2% G): 64 µg/mL (≈ 85.4 µM) | MIC ([14]; Table 2, OligoCF-5/20 +6% G): 64 µg/mL (≈ 85.4 µM) | MIC ([14]; Table 2, OligoCF-5/20 +10% G): 32^† | MIC [15, 24]: 256 µg/mL (≈ 342 µM) | MIC [15, 25]: 128 µg/mL (≈ 171 µM) | MIC [15, 26]: 64 µg/mL (≈ 85.4 µM) | MIC [15, 27]: 8 µg/mL (≈ 10.7 µM) | MIC ([15]; Table 2, OligoCF-5/20 0G): 256^† | MIC ([15]; Table 2, OligoCF-5/20 +2% G): 128^† | MIC ([15]; Table 2, OligoCF-5/20 +6% G): 64^† | MIC ([15]; Table 2, OligoCF-5/20 +10% G): 8^† | MIC ([16]; ATCCBAA246|LMG18941, Table 8, G-block (OligoCF-5/20) 0%): 64 µg/mL (≈ 85.4 µM) | MIC ([16]; ATCCBAA246|LMG18941, Table 8, G-block (OligoCF-5/20) 2%): 32 µg/mL (≈ 42.7 µM) | MIC ([16]; ATCCBAA246|LMG18941, Table 8, G-block (OligoCF-5/20) 6%): 16 µg/mL (≈ 21.4 µM) | MIC ([16]; ATCCBAA246|LMG18941, Table 8, G-block (OligoCF-5/20) 10%): 16 µg/mL (≈ 21.4 µM)
